What was measured:
Format in all cases: in vivo, mouse
[1] = test system: apo-E knockout mice fed high-cholesterol diet; test: Quantitative analysis of atherosclerotic plaques (Sudan IV stained aortas); conditions: 1 mg/kg/d of each drug, 12 weeks, vs high-cholesterol diet alone
Method: Five pairs of C57BL/6J mice and three pairs of homozygous apo-E knockout mice (on C57BL/6J background) were obtained from Jackson Laboratories (Bar Harbor, Me.). They were bred by brother-sister mating and housed in a room lit from 6:00 AM to 6:00 PM and kept at 21° C. The C57BL/6J mice (n=10) were continued on regular diet for the entire study period. The apo-E knockout mice were divided into four groups. Group 1 (n=10) animals were given high-cholesterol diet (1% cholesterol) alone for 12 weeks since the age of 6 weeks; Group 2 (n=10) animals were given high-cholesterol diet with candesartan (1 mg/kg/d) for 12 weeks since the age of 6 weeks; Group 3 (n=10) animals were given high-cholesterol diet with the rosuvastatin (1 mg/kg/d) for 12 weeks since the age of 6 weeks; Group 4 (n=10) animals were given high-cholesterol diet with candesartan (1 mg/kg/d) and rosuvastatin (1 mg/kg/d) for 12 weeks since the age of 6 weeks. At the end of 12-week-treatment, the mice were sacrificed and subject to studies described below. All experimental procedures were performed in accordance with protocols approved by the institutional Animal Care and Usage Committee of University of Arkansas for Medical Sciences. Quantitative Analysis of Atherosclerotic Plaques At the end of 12-week-treatment, 5 mice from each group were euthanized and the aortas were separated from surrounding tissues. After removal of the adventitial fat tissue, the aortas were opened longitudinally from the aorta arch to the iliac bifurcation, and fixed in 10% formalin for 24 hours. Then the aortas were rinsed in 70% alcohol briefly, stained with Sudan IV solution for 15 minutes, differentiated in 80% alcohol for 20 minutes and washed in running water for 1 hour (Russell L. Techniques for studying atherosclerotic lesion, Lab Invest. 1958; 7:42-47). […] The images were analyzed by soft ware (Image Pro Plus, Media Cybernetics). […] Statistical significance was determined in multiple comparisons among independent groups of data in which ANOVA and the F test indicated the presence of significant differences. […]

[2] = test system: CD40; test: CD40 expression in aorta by RT-PCR and Western blot; conditions: aorta of apo-E knockout mice, high-cholesterol diet, 1 mg/kg/d of each drug, 12 weeks; vs high-cholesterol diet alone
Method: (§1) Five pairs of C57BL/6J mice and three pairs of homozygous apo-E knockout mice (on C57BL/6J background) were obtained from Jackson Laboratories (Bar Harbor, Me.). They were bred by brother-sister mating and housed in a room lit from 6:00 AM to 6:00 PM and kept at 21° C. The C57BL/6J mice (n=10) were continued on regular diet for the entire study period. The apo-E knockout mice were divided into four groups. Group 1 (n=10) animals were given high-cholesterol diet (1% cholesterol) alone for 12 weeks since the age of 6 weeks; Group 2 (n=10) animals were given high-cholesterol diet with candesartan (1 mg/kg/d) for 12 weeks since the age of 6 weeks; Group 3 (n=10) animals were given high-cholesterol diet with the rosuvastatin (1 mg/kg/d) for 12 weeks since the age of 6 weeks; Group 4 (n=10) animals were given high-cholesterol diet with candesartan (1 mg/kg/d) and rosuvastatin (1 mg/kg/d) for 12 weeks since the age of 6 weeks.
(§2) At the end of 12-week-treatment, 5 mice from each group were euthanized and the aortas (from aorta arch to iliac bifurcation) were separated from surrounding tissues and stored on dry ice. Each aorta was cut into four segments, two of which were used to extract total RNA with the single-step acid-guanidinium thiocyanate-phenol-chloroform method as described earlier (27). […]

[3] = test system: LOX-1; test: LOX-1 expression in aorta by RT-PCR and Western blot; conditions: aorta of apo-E knockout mice, high-cholesterol diet, 1 mg/kg/d of each drug, 12 weeks; vs high-cholesterol diet alone
Method: as §1, §2

[4] = test system: TIMP-1; test: TIMP-1 protein expression in aorta by Western blot; conditions: aorta of apo-E knockout mice, high-cholesterol diet, 1 mg/kg/d of each drug, 12 weeks; vs high-cholesterol diet alone
Method: (§3) Five pairs of C57BL/6J mice and three pairs of homozygous apo-E knockout mice (on C57BL/6J background) were obtained from Jackson Laboratories (Bar Harbor, Me.). They were bred by brother-sister mating and housed in a room lit from 6:00 AM to 6:00 PM and kept at 21° C. The C57BL/6J mice (n=10) were continued on regular diet for the entire study period. The apo-E knockout mice were divided into four groups. […]
(§4) Each mouse aorta was cut into four segments. […] Membranes were washed and then incubated with 1:5000 dilution specific secondary antibody (Amersham Life Science) for 2 hours at room temperature, and the membranes were washed and detected with the ECL system (Amersham Life Science). The relative intensities of protein bands were analyzed by Scan-gel-it software (Li D Y, Zhang Y C, Sawamura T, Mehta J L. Circ Res. 1999; 84:1043-1049).
(§5) All data represent mean of duplicate samples. […] Statistical significance was determined in multiple comparisons among independent groups of data in which ANOVA and the F test indicated the presence of significant differences. […]

[5] = test system: MMP-1; test: MMP-1 expression in aorta by RT-PCR and Western blot; conditions: aorta of apo-E knockout mice, high-cholesterol diet, 1 mg/kg/d of each drug, 12 weeks; vs high-cholesterol diet alone
Method: as §1, §2

[6] = test system: MMP-9; test: MMP-9 expression in aorta by RT-PCR and Western blot; conditions: aorta of apo-E knockout mice, high-cholesterol diet, 1 mg/kg/d of each drug, 12 weeks; vs high-cholesterol diet alone
Method: as §1, §2

[7] = test system: TIMP-2; test: TIMP-2 protein expression in aorta by Western blot; conditions: aorta of apo-E knockout mice, high-cholesterol diet, 1 mg/kg/d of each drug, 12 weeks; vs high-cholesterol diet alone
Method: as §3, §4, §5

[8] = test system: MMP-2; test: MMP-2 expression in aorta by RT-PCR and Western blot; conditions: aorta of apo-E knockout mice, high-cholesterol diet, 1 mg/kg/d of each drug, 12 weeks; vs high-cholesterol diet alone
Method: as §1, §2

| SMILES | decrease of atherosclerosis [1] | CD40 expression (mRNA and protein) [2] | LOX-1 expression (mRNA and protein) [3] | extent of atherosclerosis (in words) [1] | TIMP-1 protein expression [4] | MMP-1 expression (mRNA and protein) [5] | MMP-9 expression (mRNA and protein) [6] | TIMP-2 protein expression [7] | MMP-2 expression (mRNA and protein) [8] |
| --- | --- | --- | --- | --- | --- | --- | --- | --- | --- |
| CCOc1nc2cccc(C(=O)O)c2n1Cc1ccc(-c2ccccc2-c2nnn[nH]2)cc1 [candesartan] | about 35% |  |  |  |  |  |  |  |  |
| CC(C)c1nc(N(C)S(C)(=O)=O)nc(-c2ccc(F)cc2)c1/C=C/[C@@H](O)C[C@@H](O)CC(=O)O [rosuvastatin] | ~25% | slightly decreased CD40 expression | decreased the LOX-1 expression (mRNA and protein), albeit modestly | decreased the extent of atherosclerosis | reduced TIMP-1 and TIMP-2 expression by a small degree | decreased MMP-1, -2 and -9 expression (mRNA and protein), albeit modestly | decreased MMP-1, -2 and -9 expression (mRNA and protein), albeit modestly | reduced TIMP-1 and TIMP-2 expression by a small degree | decreased MMP-1, -2 and -9 expression (mRNA and protein), albeit modestly |
